Patent US10463671B2, “Combination therapy for treating cancer” (Epizyme, Inc., priority 2013, dated 2019)

Test system: glucocorticoid signaling genes in SU-DHL10 cells
Assay: RT2 Glucocorticoid Signaling PCR array
Assay type: cell-based
Details: SUDHL10, 4 days
Method: Gene expression was normalized to array's B2M and fold change compared to DMSO was calculated using the ΔΔCt method.

## CCN(c1cc(-c2ccc(CN3CCOCC3)cc2)cc(C(=O)NCc2c(C)cc(C)[nH]c2=O)c1C)C1CCOCC1 [Compound 44]
  ZHX3 Ct Values: 26.305
  ZNF2B1 Ct Values: 23.857
Normalized to B2M
  ACTB ΔCT (B2M): −4.319
  ADARB1 ΔCT (B2M): 12.068
  AFF1 ΔCT (B2M): 10.702
  AK2 ΔCT (B2M): 1.827
  AMPD3 ΔCT (B2M): 8.507
  ANGPTL4 ΔCT (B2M): 12.960
  ANXA4 ΔCT (B2M): 5.814
  ARID5B ΔCT (B2M): 9.061
  ASPH ΔCT (B2M): 4.690
  ATF4 ΔCT (B2M): 1.460
  B2M ΔCT (B2M): 0.000
  BCL6 ΔCT (B2M): 3.492
  CEBPA ΔCT (B2M): 9.753
  CEBPB ΔCT (B2M): 7.477
  CREB1 ΔCT (B2M): 4.662
  CREB3L4 ΔCT (B2M): 6.992
  CREB3 ΔCT (B2M): 7.305
  CYB561 ΔCT (B2M): 17.857
  DDIT4 ΔCT (B2M): 6.962
  DUSP1 ΔCT (B2M): 12.153
  EHD3 ΔCT (B2M): 7.621
  FKBP5 ΔCT (B2M): 3.736
  FOSL2 ΔCT (B2M): 13.784
  GAPDH ΔCT (B2M): −1.354
  GDPD1 ΔCT (B2M): 11.796
  GOT1 ΔCT (B2M): 6.159
  H6PD ΔCT (B2M): 8.979
  HNRPLL ΔCT (B2M): 4.617
  HPRT1 ΔCT (B2M): 1.468
  IL1RN ΔCT (B2M): 13.035
  IL6R ΔCT (B2M): 14.660
  IL10 ΔCT (B2M): 13.358
  KLF9 ΔCT (B2M): 13.378
  KLF13 ΔCT (B2M): 5.389
  LOX ΔCT (B2M): 16.238
  MERTK ΔCT (B2M): 15.505
  MT2A ΔCT (B2M): 18.078
  NFKBIA ΔCT (B2M): 4.507
  NR3C1 ΔCT (B2M): 4.617
  PDCD7 ΔCT (B2M): 5.976
  PDP1 ΔCT (B2M): 7.028
  PER1 ΔCT (B2M): 8.563
  PER2 ΔCT (B2M): 5.633
  PIK3R1 ΔCT (B2M): 5.514
  PLEKHF1 ΔCT (B2M): 9.832
  POU2F1 ΔCT (B2M): 6.695
  POU2F2 ΔCT (B2M): 5.951
  RASA3 ΔCT (B2M): 5.130
  RGS2 ΔCT (B2M): 6.440
  RHOB ΔCT (B2M): 8.682
  RHOJ ΔCT (B2M): 17.383
  RPLP0 ΔCT (B2M): −2.326
  SESN1 ΔCT (B2M): 8.333
  SGK1 ΔCT (B2M): 6.211
  SLC10A6 ΔCT (B2M): 17.913
  SLC19A2 ΔCT (B2M): 11.450
  SLC22A5 ΔCT (B2M): 11.116
  SNTA1 ΔCT (B2M): 7.856
  SPHK1 ΔCT (B2M): 8.657
  SPSB1 ΔCT (B2M): 6.986
  STAT5A ΔCT (B2M): 6.128
  STAT5B ΔCT (B2M): 5.134
  TBL1XR1 ΔCT (B2M): 2.699
  TNF ΔCT (B2M): 4.578
  TNFAIP3 ΔCT (B2M): 8.530
  TSC22D3 ΔCT (B2M): 9.724
  USP2 ΔCT (B2M): 4.287
  USP54 ΔCT (B2M): 8.642
  VDR ΔCT (B2M): 10.367
  VLDLR ΔCT (B2M): 13.757
  ZFP36 ΔCT (B2M): 7.496
  ZHX3 ΔCT (B2M): 7.158
  ZNF2B1 ΔCT (B2M): 4.710
Vs DMSO
  ARID5B ΔΔCT: 0.650
  EHD3 ΔΔCT: −0.885
  FKBP5 ΔΔCT: 0.042
  PIK3R1 ΔΔCT: 0.431
  SLC19A2 ΔΔCT: −1.143
  USP54 ΔΔCT: −0.064
